Data published in US11453847B2, “Laundry sheet” (priority 2018, dated 2022).

Experiments:
Water flea = conditions: in vivo
Experimental: (§1) (4) An ecotoxicity test was performed on various alkyl polyglucosides.

Algal = conditions: in vivo
Experimental: as §1

Row | Substance | Water flea test EC50 (49 h) (Water flea) [mg/L] | Algal test EC50 (72 h) (Algal) [mg/L]
1 | alkyl ethoxylate [AEO] | 1.9 | 1.2
2 | fatty acid methyl ester ethoxylate [FMEE] | 79.2 | >100
